Results published in patent publication US11369659B2, “Method of enhancing a brain or cognitive function” (Brainon Inc., priority 2015, dated 2022).

Experiments:
[1] = tested on: scopolamine-induced memory deterioration; assay: step-through passive avoidance test; type: in vivo; conditions: male ICR mice; peptide intraperitoneally 30 minutes before scopolamine; scopolamine 30 minutes before test; retention trial after 24 hours; compared with scopolamine-administered group
Procedure: Louis, Mo., USA). 4-week-old male ICR mice were purchased from Korean BioLink Co. (Chungbuk, Korea). After an adaptation period of one week, the mice were used in a test and all reagents were administered intraperitoneally. […] A passive avoidance test was performed in the same bright room and dark room. A floor of each room was formed in a shape in which 2-mm stainless steel rods were separated from each other at 1-cm intervals. Bright squares (20×20×20 cm) had 100-W bulbs. These squares were connected to a guillotine door. For an acquisition trial, the mouse was placed in the bright room after injection of the reagents and the door was opened after 10 seconds. When the mouse completely entered the dark room, the door was closed and electric shock was applied for 3 seconds. A retention trial was performed after 24 hours of the acquisition trial and the mouse was positioned in the bright room. A latency time of the acquisition and retention trials was measured by a time until the mouse entered the dark room of the box after the door was opened. The retention latency in the passive avoidance test represents a long-term memory function in rodents.

[2] = tested on: scopolamine-induced memory deterioration; assay: Y maze test; type: in vivo, ICR mice; conditions: for spontaneous alternation (memory improving effect): male ICR mice, peptide intraperitoneally 30 minutes before scopolamine, scopolamine 30 minutes before test, compared with scopolamine-administered group
Procedure: Scopolamine was purchased from Sigma-Aldrich (St. Louis, Mo., USA). 4-week-old male ICR mice were purchased from Korean BioLink Co. (Chungbuk, Korea). After an adaptation period of one week, the mice were used in a test and all reagents were administered intraperitoneally.
The mouse was placed at one end of a Y maze with a length of one branch of 30 cm, a width of 5 cm, and a height of 13 cm and the order of entry into each branch was recorded. Alternation was judged to be successful if the mouse sequentially entered three different branches. Spontaneous alternation was defined as Equation below. Spontaneous alternation (%)=the number of alternations/(total number of entries−2)×100

GAG [Peptide-2]
retention trial latency time (memory improving effect) [1]: improved to be close to a normal group administered with saline
spontaneous alternation (memory improving effect) [2]: slight improvement
spontaneous alternation (memory improving effect) ([2]; listed as sequence number 2): excellent effect as compared with a control group

CN1[C@@H]2C[C@@H](OC(=O)[C@H](CO)c3ccccc3)C[C@H]1[C@@H]1O[C@@H]12 [scopolamine, Scopolamine, reference compound]
mean of spontaneous alternations ([2]; scopolamine-injected group compared with normal saline group): significantly lowered

AGAG [Peptide-3]
retention trial latency time (memory improving effect) [1]: a little effect
spontaneous alternation (memory improving effect) [2]: excellent effect as compared with a control group
